Tested on: MDA-MB-361 cells
Test: MDA-MB-361 bone micrometastasis xenograft (IIA injection)
[1] = significance vs PBS group, end of experiment

NCCCC(O)(P(=O)(O)O)P(=O)(O)O [ALN, Alendronate]
bone mass loss of femurs (microCT) (82 days after tumor implantation): significant losses of bone mass
development of micrometastases / lesions (BLI imaging) (ALN 10 μg/kg, Tras, Tras-ALN 1 mg/kg, retro-orbital twice a week): accumulated rapidly
tumor burden, histomorphometric analysis of tibiae and femurs (H&E bone sections): high tumor burdens
BLI Fold-increase (significance vs PBS group, BLI of day 87/BLI of day 6, two-way ANOVA): NS (NS represents P > 0.05)
Osteoclast activity Osteoclast number (significance vs PBS group, TRAP-stained tibia/femur sections, end of experiment): * (* P < 0.05)
Osteoclast activity Serum Calcium [1]: NS (NS represents P > 0.05)
Osteoclast activity Serum TRACP 5b [1]: NS (NS represents P > 0.05)
Survival (significance vs PBS group, endpoint BLI intensity over 10^7, log-rank test): NS (NS represents P > 0.05)
BLI Progression (significance vs PBS group, whole-body BLI over the course of the experiment, two-way ANOVA): NS (NS represents P > 0.05)

Source: US20240299568A1, “BONE-SPECIFIC DELIVERY OF POLYPEPTIDES” (William Marsh Rice University, priority 2021, published 2024)
